From PMC7345083, “Vancomycin-Lipopeptide Conjugates with High Antimicrobial Activity on Vancomycin-Resistant Enterococci” (Pharmaceuticals, 2020)
Values after ≈ are worked out from the molar mass of the structure shown.

Experiments:
[1] = test system: Enterococcus faecium UL602570 (vanA, clinical isolate); format: cell-based; conditions: UL602570 (vanA, clinical isolate, 18 h)
Protocol: (§1) The minimum inhibitory concentration (MIC) was determined by microdilution following the EUCAST and CLSI guidelines via the broth microdilution assay on a 96-well plate. Substances were dissolved in saline solution (0.9%) at a concentration equimolar to 1.28 mg/mL vancomycin. With an increasing hydrophobicity, some substances had to be pre-dissolved in DMSO. The final concentration of DMSO remained below 1.5% and was compared to the DMSO control (no antimicrobial effect was observed up to the highest concentration tested (10%)). All substances were serially diluted on the 96-well plate using Mueller-Hinton-Broth II (cation adjusted). Vancomycin was always used as a control. For bacterial loading, an overnight culture of the referring strain was taken and adjusted to a turbidity corresponding to 10^8 cfu/mL. The bacterial suspension was further diluted to load a bacterial number of 10^6 cfu/mL on the 96-well plate and incubate it for 18 h at 35 ± 1 °C, as described before. MIC was defined as the lowest concentration without visible growth.

[2] = test system: Enterococcus casseliflavus ATCC 700327 (vanC); format: cell-based; conditions: ATCC 700327, 18 h
Protocol: as §1

[3] = test system: E. faecalis ATCC 51299 (vanB); format: cell-based, Enterococcus faecalis; conditions: ATCC 51299, 18 h
Protocol: as §1

[4] = test system: E. faecium ATCC 51559 (vanA); format: cell-based, Enterococcus faecium; conditions: ATCC 51559, 18 h
Protocol: as §1

| Compound | MIC median [1] [µg/mL] | MIC range [1] [µg/mL] | also measured |
| --- | --- | --- | --- |
| CCCCCCCCCCCC(=O)N[C@@H](CCCNC(=N)N)C(=O)N[C@@H](CCCNC(=N)N)C(=O)N[C@@H](CCCNC(=N)N)C(=O)N[C@@H](CSC1CC(=O)N(CC2CCC(C(=O)NCCNC(=O)[C@H]3NC(=O)[C@H]4NC(=O)[C@H](NC(=O)[C@@H]5NC(=O)[C@H](CC(N)=O)NC(=O)[C@H](NC(=O)[C@@H](CC(C)C)NC)[C@H](O)c6ccc(c(Cl)c6)Oc6cc5cc(c6O[C@@H]5O[C@H](CO)[C@@H](O)[C@H](O)[C@H]5O[C@H]5C[C@](C)(N)[C@H](O)[C@H](C)O5)Oc5ccc(cc5Cl)[C@H]4O)c4ccc(O)c(c4)-c4c(O)cc(O)cc43)CC2)C1=O)C(N)=O (stereo partly shown) [VC-R3C-C12] | 4.84 (≈ 1.95 µM) | 2.42 to 4.84 | MIC median [2]: 4 µg/mL (≈ 1.61 µM); MIC range [2]: 1 to 4 µg/mL; MIC median [3]: 4 µg/mL (≈ 1.61 µM); MIC median [4]: 4.84 µg/mL (≈ 1.95 µM); MIC range [4]: 4.84 to 9.69 µg/mL |
| CCCCCCCCCCCCCC(=O)N[C@@H](CCCNC(=N)N)C(=O)N[C@@H](CCCNC(=N)N)C(=O)N[C@@H](CCCNC(=N)N)C(=O)N[C@@H](CSC1CC(=O)N(CC2CCC(C(=O)N(C)[C@H](CC(C)C)C(=O)N[C@H]3C(=O)N[C@@H](CC(N)=O)C(=O)N[C@H]4C(=O)N[C@H]5C(=O)N[C@H](C(=O)N[C@H](C(=O)O)c6cc(O)cc(O)c6-c6cc5ccc6O)[C@H](O)c5ccc(c(Cl)c5)Oc5cc4cc(c5O[C@@H]4O[C@H](CO)[C@@H](O)[C@H](O)[C@H]4O[C@H]4C[C@](C)(N)[C@H](O)[C@H](C)O4)Oc4ccc(cc4Cl)[C@H]3O)CC2)C1=O)C(N)=O (stereo partly shown) [VN-R3C-C14] | 2.41 (≈ 0.977 µM) | 2.41 to 4.81 |  |
| CCCCCCCCCCCCCCCC(=O)N[C@@H](CCCNC(=N)N)C(=O)N[C@@H](CCCNC(=N)N)C(=O)N[C@@H](CCCNC(=N)N)C(=O)N[C@@H](CSC1CC(=O)N(CC2CCC(C(=O)N(C)[C@H](CC(C)C)C(=O)N[C@H]3C(=O)N[C@@H](CC(N)=O)C(=O)N[C@H]4C(=O)N[C@H]5C(=O)N[C@H](C(=O)N[C@H](C(=O)O)c6cc(O)cc(O)c6-c6cc5ccc6O)[C@H](O)c5ccc(c(Cl)c5)Oc5cc4cc(c5O[C@@H]4O[C@H](CO)[C@@H](O)[C@H](O)[C@H]4O[C@H]4C[C@](C)(N)[C@H](O)[C@H](C)O4)Oc4ccc(cc4Cl)[C@H]3O)CC2)C1=O)C(N)=O (stereo partly shown) [VN-R3C-C16] | 2.45 (≈ 0.982 µM) | 2.45 to 4.89 |  |
| CCCCCCCCCCCCCCCCCC(=O)N[C@@H](CCCNC(=N)N)C(=O)N[C@@H](CCCNC(=N)N)C(=O)N[C@@H](CCCNC(=N)N)C(=O)N[C@@H](CSC1CC(=O)N(CC2CCC(C(=O)N(C)[C@H](CC(C)C)C(=O)N[C@H]3C(=O)N[C@@H](CC(N)=O)C(=O)N[C@H]4C(=O)N[C@H]5C(=O)N[C@H](C(=O)N[C@H](C(=O)O)c6cc(O)cc(O)c6-c6cc5ccc6O)[C@H](O)c5ccc(c(Cl)c5)Oc5cc4cc(c5O[C@@H]4O[C@H](CO)[C@@H](O)[C@H](O)[C@H]4O[C@H]4C[C@](C)(N)[C@H](O)[C@H](C)O4)Oc4ccc(cc4Cl)[C@H]3O)CC2)C1=O)C(N)=O (stereo partly shown) [VN-R3C-C18] | 4.97 (≈ 1.97 µM) | 2.48 to 4.97 |  |
| CC(C)C[C@H](C(=O)N[C@H]1C(=O)N[C@@H](CC(N)=O)C(=O)N[C@H]2C(=O)N[C@H]3C(=O)N[C@H](C(=O)N[C@H](C(=O)O)c4cc(O)cc(O)c4-c4cc3ccc4O)[C@H](O)c3ccc(c(Cl)c3)Oc3cc2cc(c3O[C@@H]2O[C@H](CO)[C@@H](O)[C@H](O)[C@H]2O[C@H]2C[C@](C)(N)[C@H](O)[C@H](C)O2)Oc2ccc(cc2Cl)[C@H]1O)N(C)C(=O)C1CCC(CN2C(=O)CC(SC[C@H](NC(=O)[C@H](CCCNC(=N)N)NC(=O)[C@H](CCCNC(=N)N)NC(=O)[C@@H](N)CCCNC(=N)N)C(N)=O)C2=O)CC1 (stereo partly shown) [VN-R3C] | 67.75 (≈ 30 µM) | 32.00 to 67.75 |  |
| CCCCCC(=O)N[C@@H](CCCNC(=N)N)C(=O)N[C@@H](CCCNC(=N)N)C(=O)N[C@@H](CCCNC(=N)N)C(=O)N[C@@H](CSC1CC(=O)N(CC2CCC(C(=O)NCCN[C@@]3(C)C[C@H](O[C@H]4[C@H](Oc5c6cc7cc5Oc5ccc(cc5Cl)[C@@H](O)[C@@H](NC(=O)[C@@H](CC(C)C)NC)C(=O)N[C@@H](CC(N)=O)C(=O)N[C@H]7C(=O)N[C@H]5C(=O)N[C@H](C(=O)N[C@H](C(=O)O)c7cc(O)cc(O)c7-c7cc5ccc7O)[C@H](O)c5ccc(c(Cl)c5)O6)O[C@H](CO)[C@@H](O)[C@@H]4O)O[C@@H](C)[C@H]3O)CC2)C1=O)C(N)=O (stereo partly shown) [VV-R3C-C6] | 4.63 (≈ 1.93 µM) | 2.31 to 9.25 |  |
| CCCCCCCC(=O)N[C@@H](CCCNC(=N)N)C(=O)N[C@@H](CCCNC(=N)N)C(=O)N[C@@H](CCCNC(=N)N)C(=O)N[C@@H](CSC1CC(=O)N(CC2CCC(C(=O)NCCN[C@@]3(C)C[C@H](O[C@H]4[C@H](Oc5c6cc7cc5Oc5ccc(cc5Cl)[C@@H](O)[C@@H](NC(=O)[C@@H](CC(C)C)NC)C(=O)N[C@@H](CC(N)=O)C(=O)N[C@H]7C(=O)N[C@H]5C(=O)N[C@H](C(=O)N[C@H](C(=O)O)c7cc(O)cc(O)c7-c7cc5ccc7O)[C@H](O)c5ccc(c(Cl)c5)O6)O[C@H](CO)[C@@H](O)[C@@H]4O)O[C@@H](C)[C@H]3O)CC2)C1=O)C(N)=O (stereo partly shown) [VV-R3C-C8] | 1.49 (≈ 0.614 µM) | 0.30 to 2.39 |  |
| CCCCCCCCCC(=O)N[C@@H](CCCNC(=N)N)C(=O)N[C@@H](CCCNC(=N)N)C(=O)N[C@@H](CCCNC(=N)N)C(=O)N[C@@H](CSC1CC(=O)N(CC2CCC(C(=O)NCCN[C@@]3(C)C[C@H](O[C@H]4[C@H](Oc5c6cc7cc5Oc5ccc(cc5Cl)[C@@H](O)[C@@H](NC(=O)[C@@H](CC(C)C)NC)C(=O)N[C@@H](CC(N)=O)C(=O)N[C@H]7C(=O)N[C@H]5C(=O)N[C@H](C(=O)N[C@H](C(=O)O)c7cc(O)cc(O)c7-c7cc5ccc7O)[C@H](O)c5ccc(c(Cl)c5)O6)O[C@H](CO)[C@@H](O)[C@@H]4O)O[C@@H](C)[C@H]3O)CC2)C1=O)C(N)=O (stereo partly shown) [VV-R3C-C10] | 0.63 (≈ 0.257 µM) | 0.05 to 0.84 |  |
| CCCCCCCCCCCCCC(=O)N[C@@H](CCCNC(=N)N)C(=O)N[C@@H](CCCNC(=N)N)C(=O)N[C@@H](CCCNC(=N)N)C(=O)N[C@@H](CSC1CC(=O)N(CC2CCC(C(=O)NCCN[C@@]3(C)C[C@H](O[C@H]4[C@H](Oc5c6cc7cc5Oc5ccc(cc5Cl)[C@@H](O)[C@@H](NC(=O)[C@@H](CC(C)C)NC)C(=O)N[C@@H](CC(N)=O)C(=O)N[C@H]7C(=O)N[C@H]5C(=O)N[C@H](C(=O)N[C@H](C(=O)O)c7cc(O)cc(O)c7-c7cc5ccc7O)[C@H](O)c5ccc(c(Cl)c5)O6)O[C@H](CO)[C@@H](O)[C@@H]4O)O[C@@H](C)[C@H]3O)CC2)C1=O)C(N)=O (stereo partly shown) [VV-R3C-C14] | 0.46 (≈ 0.183 µM) | 0.31 to 0.62 |  |
| CCCCCCCCCCCCCCCC(=O)N[C@@H](CCCNC(=N)N)C(=O)N[C@@H](CCCNC(=N)N)C(=O)N[C@@H](CCCNC(=N)N)C(=O)N[C@@H](CSC1CC(=O)N(CC2CCC(C(=O)NCCN[C@@]3(C)C[C@H](O[C@H]4[C@H](Oc5c6cc7cc5Oc5ccc(cc5Cl)[C@@H](O)[C@@H](NC(=O)[C@@H](CC(C)C)NC)C(=O)N[C@@H](CC(N)=O)C(=O)N[C@H]7C(=O)N[C@H]5C(=O)N[C@H](C(=O)N[C@H](C(=O)O)c7cc(O)cc(O)c7-c7cc5ccc7O)[C@H](O)c5ccc(c(Cl)c5)O6)O[C@H](CO)[C@@H](O)[C@@H]4O)O[C@@H](C)[C@H]3O)CC2)C1=O)C(N)=O (stereo partly shown) [VV-R3C-C16] | 2.50 (≈ 0.985 µM) | 2.50 to 3.50 |  |
| CCCCCCCCCCCCCCCCCC(=O)N[C@@H](CCCNC(=N)N)C(=O)N[C@@H](CCCNC(=N)N)C(=O)N[C@@H](CCCNC(=N)N)C(=O)N[C@@H](CSC1CC(=O)N(CC2CCC(C(=O)NCCN[C@@]3(C)C[C@H](O[C@H]4[C@H](Oc5c6cc7cc5Oc5ccc(cc5Cl)[C@@H](O)[C@@H](NC(=O)[C@@H](CC(C)C)NC)C(=O)N[C@@H](CC(N)=O)C(=O)N[C@H]7C(=O)N[C@H]5C(=O)N[C@H](C(=O)N[C@H](C(=O)O)c7cc(O)cc(O)c7-c7cc5ccc7O)[C@H](O)c5ccc(c(Cl)c5)O6)O[C@H](CO)[C@@H](O)[C@@H]4O)O[C@@H](C)[C@H]3O)CC2)C1=O)C(N)=O (stereo partly shown) [VV-R3C-C18] | 2.54 (≈ 0.99 µM) | 1.27 to 2.54 |  |
| CN[C@H](CC(C)C)C(=O)N[C@H]1C(=O)N[C@@H](CC(N)=O)C(=O)N[C@H]2C(=O)N[C@H]3C(=O)N[C@H](C(=O)N[C@H](C(=O)O)c4cc(O)cc(O)c4-c4cc3ccc4O)[C@H](O)c3ccc(c(Cl)c3)Oc3cc2cc(c3O[C@@H]2O[C@H](CO)[C@@H](O)[C@H](O)[C@H]2O[C@H]2C[C@](C)(NCCNC(=O)C3CCC(CN4C(=O)CC(SC[C@H](NC(=O)[C@H](CCCNC(=N)N)NC(=O)[C@H](CCCNC(=N)N)NC(=O)[C@@H](N)CCCNC(=N)N)C(N)=O)C4=O)CC3)[C@H](O)[C@H](C)O2)Oc2ccc(cc2Cl)[C@H]1O (stereo partly shown) [VV-R3C] | 4.35 (≈ 1.89 µM) | 4.35 to 8.69 |  |
| CCCCCCCCCCCC(=O)N[C@@H](CCCNC(=N)N)C(=O)N[C@@H](CCCNC(=N)N)C(=O)N[C@@H](CCCNC(=N)N)C(=O)N[C@H](Cc1ccc(O)cc1)C(=O)N[C@@H](CSC1CC(=O)N(CC2CCC(C(=O)NCCN[C@@]3(C)C[C@H](O[C@H]4[C@H](Oc5c6cc7cc5Oc5ccc(cc5Cl)[C@@H](O)[C@@H](NC(=O)[C@@H](CC(C)C)NC)C(=O)N[C@@H](CC(N)=O)C(=O)N[C@H]7C(=O)N[C@H]5C(=O)N[C@H](C(=O)N[C@H](C(=O)O)c7cc(O)cc(O)c7-c7cc5ccc7O)[C@H](O)c5ccc(c(Cl)c5)O6)O[C@H](CO)[C@@H](O)[C@@H]4O)O[C@@H](C)[C@H]3O)CC2)C1=O)C(N)=O (stereo partly shown) [VV-R3yC-C12] | 1.02 (≈ 0.386 µM) | 0.25 to 2.03 |  |
